From ChEMBL document CHEMBL3044830, “Synthesis, characterization, antibacterial, antifungal, and immunomodulating activities of gatifloxacin derivatives” (Med Chem Res, 2010)

Legend:
Trichophyton rubrum = assay: Antifungal activity against Trichophyton rubrum assessed as zone of inhibition at 5 to 40 ug/ml after 7 days by disk diffusion method relative to gatifloxacin; format: functional
Proteus mirabilis [1] = assay: Antibacterial activity against Proteus mirabilis assessed as concentration required to obtain a zone of inhibition of 20 mm after 18 to 24 hr by disc diffusion method; format: functional
Proteus mirabilis [2] = assay: Antibacterial activity against Proteus mirabilis assessed as concentration required to obtain a zone of inhibition of 5 mm after 18 to 24 hr by disc diffusion method; format: functional
Klebsiella pneumoniae [3] = assay: Antibacterial activity against Klebsiella pneumoniae assessed as concentration required to obtain a zone of inhibition of 20 mm after 18 to 24 hr by disk diffusion method; format: functional
Klebsiella pneumoniae [4] = assay: Antibacterial activity against Klebsiella pneumoniae assessed as concentration required to obtain a zone of inhibition of 10 mm after 18 to 24 hr by disk diffusion method; format: functional
Shigella flexneri [5] = assay: Antibacterial activity against Shigella flexneri assessed as concentration required to obtain a zone of inhibition of 5 mm after 18 to 24 hr by disk diffusion method; format: functional
Escherichia coli [6] = assay: Antibacterial activity against Escherichia coli assessed as concentration required to obtain a zone of inhibition of 20 mm after 18 to 24 hr by disk diffusion method; format: functional
Klebsiella pneumoniae [7] = assay: Antibacterial activity against Klebsiella pneumoniae assessed as concentration required to obtain a zone of inhibition of 5 mm after 18 to 24 hr by disk diffusion method; format: functional
Shigella flexneri [8] = assay: Antibacterial activity against Shigella flexneri assessed as zone of inhibition at 5 to 40 ug/ml after 18 to 24 hr by disk diffusion method relative to gatifloxacin; format: functional
Shigella flexneri [9] = assay: Antibacterial activity against Shigella flexneri assessed as concentration required to obtain a zone of inhibition of 10 mm after 18 to 24 hr by disk diffusion method; format: functional
Shigella flexneri [10] = assay: Antibacterial activity against Shigella flexneri assessed as concentration required to obtain a zone of inhibition of 20 mm after 18 to 24 hr by disk diffusion method; format: functional
Escherichia coli [11] = assay: Antibacterial activity against Escherichia coli assessed as concentration required to obtain a zone of inhibition of 5 mm after 18 to 24 hr by disk diffusion method; format: functional
Bacillus subtilis [12] = assay: Antibacterial activity against Bacillus subtilis assessed as zone of inhibition at 5 to 40 ug/ml after 18 to 24 hr by disk diffusion method relative to gatifloxacin; format: functional
Bacillus subtilis [13] = assay: Antibacterial activity against Bacillus subtilis assessed as concentration required to obtain a zone of inhibition of 20 mm after 18 to 24 hr by disk diffusion method; format: functional
Bacillus subtilis [14] = assay: Antibacterial activity against Bacillus subtilis assessed as concentration required to obtain a zone of inhibition of 10 mm after 18 to 24 hr by disk diffusion method; format: functional
Bacillus subtilis [15] = assay: Antibacterial activity against Bacillus subtilis assessed as concentration required to obtain a zone of inhibition of 5 mm after 18 to 24 hr by disk diffusion method; format: functional
Pseudomonas aeruginosa [16] = assay: Antibacterial activity against Pseudomonas aeruginosa assessed as zone of inhibition at 5 to 40 ug/ml after 18 to 24 hr by disk diffusion method relative to gatifloxacin; format: functional
Pseudomonas aeruginosa [17] = assay: Antibacterial activity against Pseudomonas aeruginosa assessed as concentration required to obtain a zone of inhibition of 20 mm after 18 to 24 hr by disk diffusion method; format: functional
Pseudomonas aeruginosa [18] = assay: Antibacterial activity against Pseudomonas aeruginosa assessed as concentration required to obtain a zone of inhibition of 10 mm after 18 to 24 hr by disk diffusion method; format: functional
Citrobacter [19] = assay: Antibacterial activity against Citrobacter assessed as zone of inhibition at 5 to 40 ug/ml after 18 to 24 hr by disk diffusion method relative to gatifloxacin; format: functional
Citrobacter [20] = assay: Antibacterial activity against Citrobacter assessed as concentration required to obtain a zone of inhibition of 20 mm after 18 to 24 hr by disk diffusion method; format: functional
Citrobacter [21] = assay: Antibacterial activity against Citrobacter assessed as concentration required to obtain a zone of inhibition of 10 mm after 18 to 24 hr by disk diffusion method; format: functional
Citrobacter [22] = assay: Antibacterial activity against Citrobacter assessed as concentration required to obtain a zone of inhibition of 5 mm after 18 to 24 hr by disk diffusion method; format: functional
Shigella sp. [23] = assay: Antibacterial activity against Shigella typhi assessed as zone of inhibition after 18 to 24 hr by disc diffusion method relative to gatifloxacin; format: functional
Shigella sp. [24] = assay: Antibacterial activity against Shigella typhi assessed as concentration required to obtain a zone of inhibition of 5 mm after 18 to 24 hr by disc diffusion method; format: functional
T-cell [25] = assay: Anti-inflammatory activity in Homo sapiens (human) T lymphocytes assessed as inhibition of PHA-induced [3H] thymidine uptake incubated for 72 hr prior to [3H]thymidine addition measured after 18 hr by liquid scintillation method; format: functional, cell-based
T-cell [26] = assay: Anti-inflammatory activity in Homo sapiens (human) T lymphocytes assessed as inhibition of PHA-induced [3H] thymidine uptake at 3.12 ug/ml incubated for 72 hr prior to [3H]thymidine addition measured after 18 hr by liquid scintillation method; format: functional
T-cell [27] = assay: Anti-inflammatory activity in Homo sapiens (human) T lymphocytes assessed as inhibition of PHA-induced [3H] thymidine uptake at 50 ug/ml incubated for 72 hr prior to [3H]thymidine addition measured after 18 hr by liquid scintillation method; format: functional
Blood [28] = assay: Antioxidant activity in Homo sapiens (human) whole blood assessed as inhibition of ROS production at 50 ug/ml after 30 min by luminol-enhanced chemiluminescence assay; format: functional; conditions: 0.5 h
Blood [29] = assay: Antioxidant activity in Homo sapiens (human) whole blood assessed as inhibition of ROS production at 100 ug/ml after 30 min by luminol-enhanced chemiluminescence assay; format: functional; conditions: 0.5 h
Saccharomyces cerevisiae = assay: Antifungal activity against Saccharomyces cerevisiae assessed as zone of inhibition at 5 to 40 ug/ml after 7 days by disk diffusion method relative to gatifloxacin; format: functional
Fusarium solani [30] = assay: Antifungal activity against Fusarium solani assessed as zone of inhibition at 5 to 40 ug/ml after 7 days by disk diffusion method relative to gatifloxacin; format: functional
Fusarium solani [31] = assay: Antifungal activity against Fusarium solani assessed as concentration required to obtain a zone of inhibition of 40 mm after 7 days by disk diffusion method; format: functional
Fusarium solani [32] = assay: Antifungal activity against Fusarium solani assessed as concentration required to obtain a zone of inhibition of 20 mm after 7 days by disk diffusion method; format: functional
Candida albicans [33] = assay: Antifungal activity against Candida albicans assessed as concentration required to obtain a zone of inhibition of 40 mm after 7 days by disk diffusion method; format: functional
Candida albicans [34] = assay: Antifungal activity against Candida albicans assessed as concentration required to obtain a zone of inhibition of 20 mm after 7 days by disk diffusion method; format: functional
[35] = Antibacterial activity against Hofmanni bacterium assessed as zone of inhibition after 18 to 24 hr by disc diffusion method relative to gatifloxacin
[36] = Antibacterial activity against Hofmanni bacterium assessed as concentration required to obtain a zone of inhibition of 5 mm after 18 to 24 hr by disc diffusion method

| Compound | inhibition zone (IZ) (Trichophyton rubrum) | Activity (Proteus mirabilis [1]) | Activity (Proteus mirabilis [2]) | Activity (Klebsiella pneumoniae [3]) | Activity (Klebsiella pneumoniae [4]) | Activity (Shigella flexneri [5]) | Activity (Escherichia coli [6]) | Activity (Klebsiella pneumoniae [7]) | inhibition zone (IZ) (Shigella flexneri [8]) | Activity (Shigella flexneri [9]) | Activity (Shigella flexneri [10]) | Activity (Escherichia coli [11]) | inhibition zone (IZ) (Bacillus subtilis [12]) | Activity (Bacillus subtilis [13]) | Activity (Bacillus subtilis [14]) | Activity (Bacillus subtilis [15]) | inhibition zone (IZ) (Pseudomonas aeruginosa [16]) | Activity (Pseudomonas aeruginosa [17]) | Activity (Pseudomonas aeruginosa [18]) | inhibition zone (IZ) (Citrobacter [19]) | also measured |
| --- | --- | --- | --- | --- | --- | --- | --- | --- | --- | --- | --- | --- | --- | --- | --- | --- | --- | --- | --- | --- | --- |
| COc1c(N2CCN(C(=O)c3ccccc3)C(C)C2)c(F)cc2c(=O)c(C(=O)O)cn(C3CC3)c12.O (centres undefined) | 185% | 12 µg/mL | 9 µg/mL | 21 µg/mL | 14 µg/mL | 11 µg/mL | 19 µg/mL | 8 µg/mL | 88.1% | 13 µg/mL | 14 µg/mL | 8 µg/mL | 104% | 18 µg/mL | 15 µg/mL | 12 µg/mL | 117.9% | 18 µg/mL | 12 µg/mL | 47.6% | Activity (Citrobacter [20]): 12 µg/mL; Activity (Citrobacter [21]): 10 µg/mL; Activity (Citrobacter [22]): 8 µg/mL; inhibition zone (IZ) (Shigella sp. [23]): 80.2%; Activity (Shigella sp. [24]): 8 µg/mL; IC50 (T-cell [25]): > 50 µg/mL; inhibition at 3.12 µg/mL (T-cell [26]): -59.5%; inhibition at 50 µg/mL (T-cell [27]): -6.9%; inhibition at 50 µg/mL (Blood [28]): 11.1%; inhibition at 100 µg/mL (Blood [29]): 15%; inhibition zone (IZ) (Saccharomyces cerevisiae): 0%; inhibition zone (IZ) (Fusarium solani [30]): 120%; Activity (Fusarium solani [31]): 19 µg/mL; Activity (Fusarium solani [32]): 17 µg/mL; Activity (Candida albicans [33]): 14 µg/mL; Activity (Candida albicans [34]): 10 µg/mL; inhibition zone (IZ) [35]: 86%; Activity [36]: 6 µg/mL |
| CCCCCCCC(=O)N1CCN(c2c(F)cc3c(=O)c(C(=O)O)cn(C4CC4)c3c2OC)CC1C.O (centres undefined) | 127% | 14 µg/mL | 11 µg/mL | 18 µg/mL | 14 µg/mL | 12 µg/mL | 14 µg/mL | 13 µg/mL | 105% | 15 µg/mL | 20 µg/mL | 8 µg/mL | 80.2% | 13 µg/mL | 11 µg/mL | 10 µg/mL | 78.57% | 11 µg/mL | 10 µg/mL | 51.5% | Activity (Citrobacter [20]): 15 µg/mL; Activity (Citrobacter [21]): 10 µg/mL; Activity (Citrobacter [22]): 8 µg/mL; inhibition zone (IZ) (Shigella sp. [23]): 87.5%; Activity (Shigella sp. [24]): 8 µg/mL; IC50 (T-cell [25]): > 50 µg/mL; inhibition at 3.12 µg/mL (T-cell [26]): -59.5%; inhibition at 50 µg/mL (T-cell [27]): -6.9%; inhibition at 50 µg/mL (Blood [28]): 89.2%; inhibition at 100 µg/mL (Blood [29]): 96.1%; inhibition zone (IZ) (Saccharomyces cerevisiae): 0%; inhibition zone (IZ) (Fusarium solani [30]): 110%; Activity (Fusarium solani [31]): 19 µg/mL; Activity (Fusarium solani [32]): 14 µg/mL; Activity (Candida albicans [33]): 21 µg/mL; Activity (Candida albicans [34]): 16 µg/mL; inhibition zone (IZ) [35]: 88%; Activity [36]: 7 µg/mL |
| COc1c(N2CCN(C(C)=O)C(C)C2)c(F)cc2c(=O)c(C(=O)O)cn(C3CC3)c12.O (centres undefined) | 239% | 12 µg/mL | 9 µg/mL | 25 µg/mL | 23 µg/mL | 19 µg/mL | 22 µg/mL | 16 µg/mL | 151% | 22 µg/mL | 24 µg/mL | 10 µg/mL | 100% | 17 µg/mL | 15 µg/mL | 11 µg/mL | 150.1% | 24 µg/mL | 17 µg/mL | 98.9% | Activity (Citrobacter [20]): 24 µg/mL; Activity (Citrobacter [21]): 21 µg/mL; Activity (Citrobacter [22]): 17 µg/mL; inhibition zone (IZ) (Shigella sp. [23]): 113%; Activity (Shigella sp. [24]): 9 µg/mL; IC50 (T-cell [25]): > 50 µg/mL; inhibition at 3.12 µg/mL (T-cell [26]): -23.4%; inhibition at 50 µg/mL (T-cell [27]): -52.3%; inhibition at 50 µg/mL (Blood [28]): -17.4%; inhibition at 100 µg/mL (Blood [29]): -15.1%; inhibition zone (IZ) (Saccharomyces cerevisiae): 0%; inhibition zone (IZ) (Fusarium solani [30]): 93.3%; Activity (Fusarium solani [31]): 15 µg/mL; Activity (Fusarium solani [32]): 13 µg/mL; Activity (Candida albicans [33]): 19 µg/mL; Activity (Candida albicans [34]): 16 µg/mL; inhibition zone (IZ) [35]: 99%; Activity [36]: 8 µg/mL |
